These results are taken from US20250325520A1, “Methods for Targeting Cancer Cells Using Amino Acids” (University of Denver, priority 2024, published 2025).

Data set [1] concerns PANC-1 and MIA PaCa-2 (malignant pancreas epithelial) cells. As to the kind of experiment: Cell viability / cytotoxicity (CCK-8) on PDAC tumor cells. In kind it is cell-based, human. To be noted: for cytotoxic efficacy on tumor cells / viability dose response of tumor cells: individual amino acid, 48 hours, FIGS. 7, 8. The procedure: (§1) Malignant pancreatic cell lines (PANC-1 and MIA PaCa-2) and nonmalignant human pancreas cell line (HPNE) were obtained from the American Type Culture Collection (Manassas, Virginia). The cells were cultured in DMEM medium (HYCLONE™ sera, available from GE Healthcare Life Sciences) with HPNE cells having 0.1 ng/ml EGF (Novus Biologicals, USA) included. All cultures were supplemented with 10% fetal bovine serum (FBS, Life Technology, Thermo Fisher Scientific Inc.), penicillin (1 U), and streptomycin (1 μg/ml). All cells were maintained in a humidified incubator with 5% CO2 at 37° C. All cell lines were cultured in triplicate under the same conditions, then harvested to collect independent exosome samples. Cells were seeded in 96-well plates at a density of 10^4 cells/well. After 24 hours, culture medium with increasing concentrations of treatment was added to the treatment group for 48 hours. Cell viability was accessed by Cell Counting Kit-8 (CCK-8; Dojindo Laboratories) following the manufacturer's instructions. Briefly, a mixture of 10 μl of CCK-8 and 190 μl media was added into each well and the cells were incubated for another 1 hour. The absorbance of each well was measured at 450 nm using a microplate reader. Each experiment was repeated six times.

Data set [2] deals with PANC-1 subcutaneous pancreatic tumor. As to the kind of experiment: Subcutaneous PANC-1 xenograft in nude mice. The data set is classed as in vivo. To be noted: AA oral gavage daily, GEM intraperitoneal twice a week, n=5, FIG. 32.
Protocol: In particular, the xenograft model was established with six to eight-week-old male nude mice (J:NU-Foxn1nu) purchased from The Jackson Laboratory (Bar Harbor, ME). […] The pancreatic cancer tumor was injected subcutaneously into the left flank of each mouse with 4×10^6 PANC-1 cells suspended in 100 μl of serum-free media with 50% […] ® matrix to establish a subcutaneous pancreatic tumor.
Mice were observed three times daily for the first seven days and tumor xenograft was confirmed by the presence of the tumor. […] Tumor volume and mice weight were measured every fifth day. Tumor volume was established by measuring length and width; the volume formula used was the modified ellipsoid volume formula (½ length×width 2).
For AA and control groups, treatment was given by oral gavage. AA treatment was made from a combination of histidine (44 mg/ml) and isoleucine (22 mg/ml) dissolved in PBS. For the two groups with AA, oral gavage treatment was administered daily with 200 μl AA treatment using a 20 ga polypropylene feeding tube attached to a syringe. For the control group, oral gavage treatment was administered using the same method except with 200 μl PBS. For the GEM and AA+GEM groups, GEM was given by intraperitoneal injection. GEM groups were injected twice a week with 200 μl of GEM (15 mg/ml) dissolved in PBS. All treatments were administered for sixty days. […]
The nature of data set [3]: pH change of the media caused by amino acid addition. In kind it is physicochemical. To be noted: culture media, FIG. 6.
For data set [4], the system named is hTert-HPNE (nonmalignant pancreas epithelial) cells. Nature of the data set: Cell viability / cytotoxicity (CCK-8) on nontumor cells. Particulars: individual amino acid, 48 hours, FIGS. 7, 8. The data set is classed as cell-based, human. The procedure: as §1

With `Nc1ccn([C@@H]2O[C@H](CO)[C@@H](O)C2(F)F)c(=O)n1` [GEM, gemcitabine, reference compound], the “time-dependent cytotoxicity to tumor cells” value in data set [1] (AA compared with GEM, FIG. 13) was “faster efficacy and is more tumoricidal effective”. Besides, in data set [2], the “antitumor efficacy (tumor volume)” value is given as “showed antitumor efficacy”.
`N=C(N)NCCC[C@H](N)C(=O)O` [arginine, reference compound]: in data set [3], the “pH change caused by amino acid addition” value was “significant pH change”.
For `N[C@@H](CS)C(=O)O` [cysteine, reference compound], the “pH change caused by amino acid addition” value in data set [3] is “significant pH change”.
For the molecule `N[C@@H](Cc1c[nH]cn1)C(=O)O` [histidine], in data set [3], the “pH change caused by amino acid addition” value is reported as “trivial impact”. Further, in data set [1], the “cytotoxic efficacy on tumor cells” value is listed as “selective cytotoxic efficacy” and the “viability dose response of tumor cells” value was “monotonic dose response”. Further, the “cell viability of nontumor cells” value in data set [4] is recorded as “no significant difference in cell viability”.
As for `CC[C@H](C)[C@H](N)C(=O)O` [isoleucine], the “pH change caused by amino acid addition” value in data set [3] was “trivial impact”. In data set [1], the “cytotoxic efficacy on tumor cells” value was “selective cytotoxic efficacy” and the “viability dose response of tumor cells” value was “monotonic dose response”. Besides, in data set [4], the “cell viability of nontumor cells” value was “no significant difference in cell viability”.
